{"source": "patent US7118895B2", "about": "“Process for producing aglycon by using diglycosidase and flavor-improved food containing the aglycon and converting agent to be used in the process” (Amano Enzyme Inc., priority 2000, dated 2006)", "system": "Crude diglycosidase", "experiment": "Examination of pH in the conversion into isoflavone aglycons by diglycosidase using soybean materials", "format": "biochemical, Penicillium multicolor IAM7153", "parameters": "Decomposition efficiency of genistin family in soymilk / Decomposition efficiency of genistin family in defatted soybean / Decomposition efficiency of daidzin family in defatted soybean: concentration or dose not given beside the values", "conditions": "for Decomposition efficiency of daidzin family in roasted soy flour: 55° C.", "in_short": "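Each soybean material (50 mg) is suspended and set to a pH between 2 and 11. Crude diglycosidase, adjusted to 1.88 AU/mL in enzyme solution of the same pH, is added, and the mixture is incubated at 55° C. Ethanol is added at 0, 1, 3 and 6 h, then supernatants go to HPLC.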", "key": {"[1]": {"conditions": "pH4.8, heat treatment of enzyme: no, reaction time 0 h"}, "[2]": {"conditions": "pH4.8, heat treatment of enzyme: no, reaction time 1 h"}, "[3]": {"conditions": "pH4.8, heat treatment of enzyme: no, reaction time 3 h"}, "[4]": {"conditions": "pH4.8, heat treatment of enzyme: no, reaction time 6 h"}, "[5]": {"conditions": "pH4.8, heat treatment of enzyme: yes, reaction time 6 h"}}}
{"smiles": "O=c1c(-c2ccc(O)cc2)coc2cc(O[C@@H]3O[C@H](CO)[C@@H](O)[C@H](O)[C@H]3O)ccc12", "note": "[daidzin]", "values": [{"measurement": "Decomposition efficiency of daidzin family in concentrated soybean protein", "setting": "pH1.6, heat treatment of enzyme: no, reaction time 0 h", "result": 52.5, "unit": "%"}, {"measurement": "Decomposition efficiency of daidzin family in concentrated soybean protein", "setting": "pH1.6, heat treatment of enzyme: no, reaction time 1 h", "result": 53.0, "unit": "%"}, {"measurement": "Decomposition efficiency of daidzin family in concentrated soybean protein", "setting": "pH1.6, heat treatment of enzyme: no, reaction time 3 h", "result": 55.0, "unit": "%"}, {"measurement": "Decomposition efficiency of daidzin family in concentrated soybean protein", "setting": "pH1.6, heat treatment of enzyme: no, reaction time 6 h", "result": 57.2, "unit": "%"}, {"measurement": "Decomposition efficiency of daidzin family in concentrated soybean protein", "setting": "pH1.6, heat treatment of enzyme: yes, reaction time 6 h", "result": 59.0, "unit": "%"}, {"measurement": "Decomposition efficiency of daidzin family in roasted soy flour", "setting": "pH2, heat treatment of enzyme no, reaction time 0 h", "result": 49.1}, {"measurement": "Decomposition efficiency of daidzin family in roasted soy flour", "setting": "pH2, heat treatment of enzyme no, reaction time 1 h", "result": 47.6}, {"measurement": "Decomposition efficiency of daidzin family in roasted soy flour", "setting": "pH2, heat treatment of enzyme no, reaction time 3 h", "result": 50.3}, {"measurement": "Decomposition efficiency of daidzin family in roasted soy flour", "setting": "pH2, heat treatment of enzyme no, reaction time 6 h", "result": 53.1}, {"measurement": "Decomposition efficiency of daidzin family in roasted soy flour", "setting": "pH2, heat treatment of enzyme yes, reaction time 6 h", "result": 53.8}, {"measurement": "Decomposition efficiency of daidzin family in soymilk", "setting": "pH2.3, heat treatment of enzyme: no, reaction time 0 h", "result": 34.4, "unit": "%"}, {"measurement": "Decomposition efficiency of daidzin family in soymilk", "setting": "pH2.3, heat treatment of enzyme: no, reaction time 1 h", "result": "not detected"}, {"measurement": "Decomposition efficiency of daidzin family in soymilk", "setting": "pH2.3, heat treatment of enzyme: no, reaction time 3 h", "result": "not detected"}, {"measurement": "Decomposition efficiency of daidzin family in soymilk", "setting": "pH2.3, heat treatment of enzyme: no, reaction time 6 h", "result": "not detected"}, {"measurement": "Decomposition efficiency of daidzin family in soymilk", "setting": "pH2.3, heat treatment of enzyme: yes, reaction time 6 h", "result": 38.8, "unit": "%"}, {"measurement": "Decomposition efficiency of daidzin family in defatted soybean", "setting": "pH2.6, heat treatment of enzyme: no, reaction time 0 h", "result": 45.8, "unit": "%"}, {"measurement": "Decomposition efficiency of daidzin family in defatted soybean", "setting": "pH2.6, heat treatment of enzyme: no, reaction time 1 h", "result": 37.5, "unit": "%"}, {"measurement": "Decomposition efficiency of daidzin family in defatted soybean", "setting": "pH2.6, heat treatment of enzyme: no, reaction time 3 h", "result": 17.3, "unit": "%"}, {"measurement": "Decomposition efficiency of daidzin family in defatted soybean", "setting": "pH2.6, heat treatment of enzyme: no, reaction time 6 h", "result": 16.9, "unit": "%"}, {"measurement": "Decomposition efficiency of daidzin family in defatted soybean", "setting": "pH2.6, heat treatment of enzyme: yes, reaction time 6 h", "result": 48.0, "unit": "%"}, {"measurement": "Decomposition efficiency of daidzin family in concentrated soybean protein", "setting": "pH2.7, heat treatment of enzyme: no, reaction time 0 h", "result": 52.5, "unit": "%"}, {"measurement": "Decomposition efficiency of daidzin family in concentrated soybean protein", "setting": "pH2.7, heat treatment of enzyme: no, reaction time 1 h", "result": 12.9, "unit": "%"}, {"measurement": "Decomposition efficiency of daidzin family in concentrated soybean protein", "setting": "pH2.7, heat treatment of enzyme: no, reaction time 3 h", "result": 12.5, "unit": "%"}, {"measurement": "Decomposition efficiency of daidzin family in concentrated soybean protein", "setting": "pH2.7, heat treatment of enzyme: no, reaction time 6 h", "result": 9.3, "unit": "%"}, {"measurement": "Decomposition efficiency of daidzin family in concentrated soybean protein", "setting": "pH2.7, heat treatment of enzyme: yes, reaction time 6 h", "result": 53.0, "unit": "%"}, {"measurement": "Decomposition efficiency of daidzin family in roasted soy flour", "setting": "pH3, heat treatment of enzyme no, reaction time 0 h", "result": 49.1}, {"measurement": "Decomposition efficiency of daidzin family in roasted soy flour", "setting": "pH3, heat treatment of enzyme no, reaction time 1 h", "result": "not detected"}, {"measurement": "Decomposition efficiency of daidzin family in roasted soy flour", "setting": "pH3, heat treatment of enzyme no, reaction time 3 h", "result": "not detected"}, {"measurement": "Decomposition efficiency of daidzin family in roasted soy flour", "setting": "pH3, heat treatment of enzyme no, reaction time 6 h", "result": "not detected"}, {"measurement": "Decomposition efficiency of daidzin family in roasted soy flour", "setting": "pH3, heat treatment of enzyme yes, reaction time 6 h", "result": 49.0}, {"measurement": "Decomposition efficiency of daidzin family in defatted soybean", "setting": "pH3.4, heat treatment of enzyme: no, reaction time 0 h", "result": 45.8, "unit": "%"}, {"measurement": "Decomposition efficiency of daidzin family in defatted soybean", "setting": "pH3.4, heat treatment of enzyme: no, reaction time 1 h", "result": "not detected"}, {"measurement": "Decomposition efficiency of daidzin family in defatted soybean", "setting": "pH3.4, heat treatment of enzyme: no, reaction time 3 h", "result": "not detected"}, {"measurement": "Decomposition efficiency of daidzin family in defatted soybean", "setting": "pH3.4, heat treatment of enzyme: no, reaction time 6 h", "result": "not detected"}, {"measurement": "Decomposition efficiency of daidzin family in defatted soybean", "setting": "pH3.4, heat treatment of enzyme: yes, reaction time 6 h", "result": 47.8, "unit": "%"}, {"measurement": "Decomposition efficiency of daidzin family in soymilk", "setting": "pH3.5, heat treatment of enzyme: no, reaction time 0 h", "result": 34.4, "unit": "%"}, {"measurement": "Decomposition efficiency of daidzin family in soymilk", "setting": "pH3.5, heat treatment of enzyme: no, reaction time 1 h", "result": "not detected"}, {"measurement": "Decomposition efficiency of daidzin family in soymilk", "setting": "pH3.5, heat treatment of enzyme: no, reaction time 3 h", "result": "not detected"}, {"measurement": "Decomposition efficiency of daidzin family in soymilk", "setting": "pH3.5, heat treatment of enzyme: no, reaction time 6 h", "result": "not detected"}, {"measurement": "Decomposition efficiency of daidzin family in soymilk", "setting": "pH3.5, heat treatment of enzyme: yes, reaction time 6 h", "result": 40.4, "unit": "%"}, {"measurement": "Decomposition efficiency of daidzin family in concentrated soybean protein", "setting": "pH3.7, heat treatment of enzyme: no, reaction time 0 h", "result": 52.5, "unit": "%"}, {"measurement": "Decomposition efficiency of daidzin family in concentrated soybean protein", "setting": "pH3.7, heat treatment of enzyme: no, reaction time 1 h", "result": "not detected"}, {"measurement": "Decomposition efficiency of daidzin family in concentrated soybean protein", "setting": "pH3.7, heat treatment of enzyme: no, reaction time 3 h", "result": "not detected"}, {"measurement": "Decomposition efficiency of daidzin family in concentrated soybean protein", "setting": "pH3.7, heat treatment of enzyme: no, reaction time 6 h", "result": "not detected"}, {"measurement": "Decomposition efficiency of daidzin family in concentrated soybean protein", "setting": "pH3.7, heat treatment of enzyme: yes, reaction time 6 h", "result": 52.5, "unit": "%"}, {"measurement": "Decomposition efficiency of daidzin family in roasted soy flour", "setting": "pH4, heat treatment of enzyme no, reaction time 0 h", "result": 48.7}, {"measurement": "Decomposition efficiency of daidzin family in roasted soy flour", "setting": "pH4, heat treatment of enzyme no, reaction time 1 h", "result": "not detected"}, {"measurement": "Decomposition efficiency of daidzin family in roasted soy flour", "setting": "pH4, heat treatment of enzyme no, reaction time 3 h", "result": "not detected"}, {"measurement": "Decomposition efficiency of daidzin family in roasted soy flour", "setting": "pH4, heat treatment of enzyme no, reaction time 6 h", "result": "not detected"}, {"measurement": "Decomposition efficiency of daidzin family in roasted soy flour", "setting": "pH4, heat treatment of enzyme yes, reaction time 6 h", "result": 48.6}, {"measurement": "Decomposition efficiency of daidzin family in defatted soybean", "setting": "[1]", "result": 43.5, "unit": "%"}, {"measurement": "Decomposition efficiency of daidzin family in soymilk", "setting": "[1]", "result": 34.9, "unit": "%"}, {"measurement": "Decomposition efficiency of daidzin family in defatted soybean", "setting": "[2]", "result": "not detected"}, {"measurement": "Decomposition efficiency of daidzin family in soymilk", "setting": "[2]", "result": "not detected"}, {"measurement": "Decomposition efficiency of daidzin family in defatted soybean", "setting": "[3]", "result": "not detected"}, {"measurement": "Decomposition efficiency of daidzin family in soymilk", "setting": "[3]", "result": "not detected"}, {"measurement": "Decomposition efficiency of daidzin family in defatted soybean", "setting": "[4]", "result": "not detected"}, {"measurement": "Decomposition efficiency of daidzin family in soymilk", "setting": "[4]", "result": "not detected"}, {"measurement": "Decomposition efficiency of daidzin family in defatted soybean", "setting": "[5]", "result": 37.1, "unit": "%"}, {"measurement": "Decomposition efficiency of daidzin family in soymilk", "setting": "[5]", "result": 41.2, "unit": "%"}]}
